From patent US11130769B2 (Prelude Therapeutics Incorporated, priority 2018, dated 2021)
Where two headings read alike, the source gives them in different places.

Assays:
MCL-1 = MCL-1 (Homo sapiens (Human), UniProt Q07820); test: Cell free Mcl-1:Bim affinity assay (fluorescence polarization competition); assay type: binding; settings: 15 nM MCL-1, 5 nM FITC-Bim, 1 hour at room temperature, read-out: BIM_Ki
How it was run: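 Fluorescence polarization competition: 10-point 3-fold compound dilutions displaced 5 nM FITC-Bim from 15 nM MCL-1 over 1 h at room temperature. Ki was derived from the fitted IC50 using the Nikolovska-Coleska equation, with percent inhibition normalized to DMSO and positive controls.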

H929 cells = test: Cell viability assay (H929 10 FBS); assay type: cell-based; settings: Homo sapiens, NCI-H929, 24 hours, read-out: H929_10FBS IC50
How it was run: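 ATP-based luminescence (CellTiter-Glo or ATPlite 1 Step, 30-60 min at RT) gauged viability of H929 myeloma cells after 24 h compound treatment at 37 °C. Cells plated at 4000 per well in 10% FBS RPMI 1640 supplemented with pyruvate, HEPES and glucose.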

Chain of MCL-1 (Q07820 whole entry): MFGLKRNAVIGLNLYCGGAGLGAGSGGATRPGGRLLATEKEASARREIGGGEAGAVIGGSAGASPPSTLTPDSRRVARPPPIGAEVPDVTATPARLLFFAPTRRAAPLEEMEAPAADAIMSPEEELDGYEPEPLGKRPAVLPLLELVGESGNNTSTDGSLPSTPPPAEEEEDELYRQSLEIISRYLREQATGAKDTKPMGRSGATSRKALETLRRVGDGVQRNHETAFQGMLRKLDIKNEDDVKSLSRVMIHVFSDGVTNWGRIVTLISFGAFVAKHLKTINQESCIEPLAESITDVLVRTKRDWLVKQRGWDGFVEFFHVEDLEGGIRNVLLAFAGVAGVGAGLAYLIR

| SMILES | Ki (MCL-1; class symbols) | IC50 (H929 cells) | Ki (MCL-1; numeric values) |
| --- | --- | --- | --- |
| CN(C)C(=O)O[C@H]1/C=C/COC(C)(C)C(=O)NS(=O)(=O)c2ccc3c(c2)N(C[C@@H]2CC[C@H]21)C[C@@]1(CCCc2cc(Cl)ccc21)CO3 [Example 34, [(3R,6R,7S,8E,22S)-6′-Chloro-12,12-dimethyl-3,5,5-trioxo-spiro[11,20-dioxa-15-thia-1,14-diazatetracyclo[14.7.2.03,6.019,24]pentacosa-8,16,18,24-tetraene-22,1′-tetralin]-7-yl] N,N-dimethylcarbamate] | < 1 nM | < 500 nM |  |
| COC(=O)N1C/C=C/[C@@H](OC)[C@@H]2CC[C@H]2CN2C[C@@]3(CCCc4cc(Cl)ccc43)COc3ccc(cc32)S(=O)(=O)NC(=O)C2(CCC2)C1 [Example 67, (3R,6R,7R,8E,23S)-6′-Chloro-7-methoxy-11-methoxycarbonyl-13,13-(1,3-propylene)-16,16-dioxo-spiro[21-oxa-16-thia-1,11,15-triazatetracyclo[15.7.2.03,6.020,25]hexacosa[8,17(26),18,20(25)]tetraene-23,1′-tetralin]-14-one] | 1 to 100 nM | > 1000 nM |  |
| O=C(Cc1ccncc1)NS(=O)(=O)c1ccc2c(c1)N(CC1CCC1)C[C@@]1(CCCc3cc(Cl)ccc31)CO2 [Example 19, 2-Pyridin-4-yl-N-[(3S)-6′-chloro-5-(cyclobutylmethyl)spiro[2,4-dihydro-1,5-benzoxazepine-3,1′-tetralin]-7-yl]sulfonyl-acetamide] |  | > 1000 nM | 9.3 nM |
| CN1C(=O)OC[C@@H]2CC[C@H]2CN2C[C@@]3(CCCc4cc(Cl)ccc43)COc3ccc(cc32)S(=O)(=O)NC(=O)N2CC[C@H]1C2 [Example 103, (3R,6R,11S,24S)-6′-Chloro-10-methyl-17,17-dioxo-spiro[8,22-dioxa-17λ^6-thia-1,10,14,16-tetrazapentacyclo[16.7.2.1^11,14.0{circumflex over (°)}3,6.0^21,26]octacosa-18,20,26-triene-24,1′-tetralin]-9,15-dione] | < 1 nM | > 1000 nM |  |
| CO[C@@H]1/C=C/CN(C)[C@@H](C2CC2)C(=O)NS(=O)(=O)c2ccc3c(c2)N(C[C@@H]2CC[C@H]21)C[C@@]1(CCCc2cc(Cl)ccc21)CO3 [Example 127, (3R,6R,7R,8E,12S,22S)-6′-Chloro-12-cyclopropyl-7-methoxy-11-methyl-15,15-dioxo-spiro[20-oxa-15-thia-1,11,14-triazatetracyclo[14.7.2.0˜3,6.0˜19,24]pentacosa-8,16,18,24-tetraene-22,1′-tetralin]-13-one] | 1 to 100 nM | < 1000 nM |  |

Second part, the compound after the results:

| Ki (MCL-1; class symbols) | IC50 (H929 cells) | Ki (MCL-1; numeric values) | SMILES |
| --- | --- | --- | --- |
| < 1 nM | < 500 nM |  | CC1(C)OC/C=C/[C@H](OC(=O)N2CCOCC2)[C@@H]2CC[C@H]2CN2C[C@@]3(CCCc4cc(Cl)ccc43)COc3ccc(cc32)S(=O)(=O)NC1=O [Example 172, [(3R,6R,7S,8E,22S)-6′-Chloro-12,12-dimethyl-13,15,15-trioxo-spiro[11,20-dioxa-15-thia-1,14-diazatetracyclo[14.7.2.03,6.019,24]pentacosa-8,16,18,24-tetraene-22,1′-tetralin]-7-yl]morpholine-4-carboxylate] |
| < 1 nM | < 500 nM |  | CC1(C)OC/C=C/[C@H](OC(=O)N2CCCC2)[C@@H]2CC[C@H]2CN2C[C@@]3(CCCc4cc(Cl)ccc43)COc3ccc(cc32)S(=O)(=O)NC1=O [Example 173, [(3R,6R,7S,8E,22S)-6′-Chloro-12,12-dimethyl-13,15,15-trioxo-spiro[11,20-dioxa-15-thia-1,14-diazatetracyclo[14.7.2.03,6.019,24]pentacosa-8,16,18,24-tetraene-22,1′-tetralin]-7-yl]pyrrolidine-1-carboxylate] |
| < 1 nM | < 500 nM |  | CC1(C)OC/C=C/[C@@H](OCCN2CC(F)(F)C2)[C@@H]2CC[C@H]2CN2C[C@@]3(CCCc4cc(Cl)ccc43)COc3ccc(cc32)S(=O)(=O)NC1=O [Example 272, (3R,6R,7R,8E,22S)-6′-Chloro-7-[2-(3,3-difluoroazetidin-1-yl)ethoxy]-12,12-dimethyl-15,15-dioxo-spiro[11,20-dioxa-15-thia-1,14-diazatetracyclo[14.7.2.03,6.019,24]pentacosa-8,16,18,24-tetraene-22,1′-tetralin]-13-one] |
